Results reported in the kinase profiling compilation of Christmann-Franck et al. (2016).

What was measured:
Assay in all cases: radiometric filter-binding kinase assay, Kinase HotSpot
Conditions in all cases: compound 0.5 µM; ATP 10 µM
MET (human) = MET (human) (UniProt P08581)
CSNK1A1 (human) = CSNK1A1 (human) (UniProt P48729)
DAPK2 (human) = DAPK2 (human) (UniProt Q9UIK4)
NEK11 (human) = NEK11 (human) (UniProt Q8NG66)
KIT (human) = KIT (human) (UniProt P10721)
ACVRL1 (human) = ACVRL1 (human) (UniProt P37023)
RAF1 (human) = RAF1 (human) (UniProt P04049)
ROS1 (human) = ROS1 (human) (UniProt P08922)
MERTK (human) = MERTK (human) (UniProt Q12866)
MAP3K2 (human) = MAP3K2 (human) (UniProt Q9Y2U5)
WNK2 (human) = WNK2 (human) (UniProt Q9Y3S1)
NLK (human) = NLK (human) (UniProt Q9UBE8)
FER (human) = FER (human) (UniProt P16591)
LRRK2 (human) = LRRK2 (human) (UniProt Q5S007)
HIPK4 (human) = HIPK4 (human) (UniProt Q8NE63)
PDPK1 (human) = PDPK1 (human) (UniProt O15530)
NTRK2 (human) = NTRK2 (human) (UniProt Q16620)
[1] = target: TYK2 JH1 catalytic (human) (UniProt P29597)
MAP3K10 (human) = MAP3K10 (human) (UniProt Q02779)
SLK (human) = SLK (human) (UniProt Q9H2G2)
FES (human) = FES (human) (UniProt P07332)
ROCK2 (human) = ROCK2 (human) (UniProt O75116)
PAK2 (human) = PAK2 (human) (UniProt Q13177)
TGFBR2 (human) = TGFBR2 (human) (UniProt P37173)
CDC42BPB (human) = CDC42BPB (human) (UniProt Q9Y5S2)
AURKC (human) = AURKC (human) (UniProt Q9UQB9)
ZAP70 (human) = ZAP70 (human) (UniProt P43403)
ALK (human) = ALK (human) (UniProt Q9UM73)
PLK1 (human) = PLK1 (human) (UniProt P53350)
CAMK1D (human) = CAMK1D (human) (UniProt Q8IU85)
RPS6KB2 (human) = RPS6KB2 (human) (UniProt Q9UBS0)
RET (human) = RET (human) (UniProt P07949)
CSNK1E (human) = CSNK1E (human) (UniProt P49674)
MATK (human) = MATK (human) (UniProt P42679)
TNK2 (human) = TNK2 (human) (UniProt Q07912)
FGFR4 (human) = FGFR4 (human) (UniProt P22455)
SRPK2 (human) = SRPK2 (human) (UniProt P78362)
EGFR (human) = EGFR (human) (UniProt P00533)
ACVR1B (human) = ACVR1B (human) (UniProt P36896)
EPHA1 (human) = EPHA1 (human) (UniProt P21709)
PIM1 (human) = PIM1 (human) (UniProt P11309)
MAP3K5 (human) = MAP3K5 (human) (UniProt Q99683)

Chain of CSNK1E (human) (P49674 whole entry, looked up): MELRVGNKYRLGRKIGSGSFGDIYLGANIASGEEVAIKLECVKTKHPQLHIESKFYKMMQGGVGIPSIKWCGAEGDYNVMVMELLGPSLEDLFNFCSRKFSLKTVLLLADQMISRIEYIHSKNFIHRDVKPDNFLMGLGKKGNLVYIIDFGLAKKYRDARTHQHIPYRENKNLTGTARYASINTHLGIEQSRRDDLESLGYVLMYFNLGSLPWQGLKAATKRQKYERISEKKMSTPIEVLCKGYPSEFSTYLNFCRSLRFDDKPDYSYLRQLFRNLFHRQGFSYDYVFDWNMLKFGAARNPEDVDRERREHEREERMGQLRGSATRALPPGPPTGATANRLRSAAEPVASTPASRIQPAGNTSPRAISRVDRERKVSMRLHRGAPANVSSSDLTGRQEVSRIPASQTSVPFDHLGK
Chain of ROCK2 (human) (O75116 whole entry, looked up): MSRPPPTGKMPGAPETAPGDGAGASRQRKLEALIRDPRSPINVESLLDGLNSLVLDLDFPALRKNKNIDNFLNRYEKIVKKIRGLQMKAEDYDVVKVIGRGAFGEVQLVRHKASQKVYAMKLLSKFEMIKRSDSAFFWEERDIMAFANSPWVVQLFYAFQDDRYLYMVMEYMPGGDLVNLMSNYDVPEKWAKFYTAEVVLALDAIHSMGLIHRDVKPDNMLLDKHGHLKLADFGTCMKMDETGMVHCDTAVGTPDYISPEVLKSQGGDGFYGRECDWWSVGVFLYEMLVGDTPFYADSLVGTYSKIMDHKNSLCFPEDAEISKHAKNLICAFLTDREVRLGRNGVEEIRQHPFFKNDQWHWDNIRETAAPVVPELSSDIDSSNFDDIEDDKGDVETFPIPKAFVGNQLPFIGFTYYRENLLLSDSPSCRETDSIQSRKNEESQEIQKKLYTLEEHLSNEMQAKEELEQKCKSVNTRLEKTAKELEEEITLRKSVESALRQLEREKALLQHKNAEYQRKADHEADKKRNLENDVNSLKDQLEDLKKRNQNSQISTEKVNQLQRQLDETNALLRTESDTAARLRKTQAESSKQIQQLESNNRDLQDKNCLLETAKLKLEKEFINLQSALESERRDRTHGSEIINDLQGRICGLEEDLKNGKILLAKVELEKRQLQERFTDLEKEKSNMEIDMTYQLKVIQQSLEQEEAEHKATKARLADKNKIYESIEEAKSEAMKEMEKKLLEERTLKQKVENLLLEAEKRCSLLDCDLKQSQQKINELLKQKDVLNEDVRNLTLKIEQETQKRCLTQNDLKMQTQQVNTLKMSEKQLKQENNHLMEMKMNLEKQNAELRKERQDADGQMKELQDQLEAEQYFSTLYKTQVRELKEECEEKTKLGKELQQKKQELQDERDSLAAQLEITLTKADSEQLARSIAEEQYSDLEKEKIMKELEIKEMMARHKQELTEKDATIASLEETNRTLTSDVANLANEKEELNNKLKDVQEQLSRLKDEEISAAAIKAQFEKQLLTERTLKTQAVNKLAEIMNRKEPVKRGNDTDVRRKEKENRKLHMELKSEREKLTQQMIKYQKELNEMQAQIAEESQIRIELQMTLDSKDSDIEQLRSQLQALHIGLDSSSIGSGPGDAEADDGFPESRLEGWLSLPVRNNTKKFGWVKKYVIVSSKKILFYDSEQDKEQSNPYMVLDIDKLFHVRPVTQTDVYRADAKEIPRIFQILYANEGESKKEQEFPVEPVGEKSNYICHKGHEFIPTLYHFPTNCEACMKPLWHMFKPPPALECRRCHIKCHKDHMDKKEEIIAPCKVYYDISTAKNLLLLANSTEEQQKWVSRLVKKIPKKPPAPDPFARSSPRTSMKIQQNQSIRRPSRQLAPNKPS
Chain of HIPK4 (human) (Q8NE63 whole entry, looked up): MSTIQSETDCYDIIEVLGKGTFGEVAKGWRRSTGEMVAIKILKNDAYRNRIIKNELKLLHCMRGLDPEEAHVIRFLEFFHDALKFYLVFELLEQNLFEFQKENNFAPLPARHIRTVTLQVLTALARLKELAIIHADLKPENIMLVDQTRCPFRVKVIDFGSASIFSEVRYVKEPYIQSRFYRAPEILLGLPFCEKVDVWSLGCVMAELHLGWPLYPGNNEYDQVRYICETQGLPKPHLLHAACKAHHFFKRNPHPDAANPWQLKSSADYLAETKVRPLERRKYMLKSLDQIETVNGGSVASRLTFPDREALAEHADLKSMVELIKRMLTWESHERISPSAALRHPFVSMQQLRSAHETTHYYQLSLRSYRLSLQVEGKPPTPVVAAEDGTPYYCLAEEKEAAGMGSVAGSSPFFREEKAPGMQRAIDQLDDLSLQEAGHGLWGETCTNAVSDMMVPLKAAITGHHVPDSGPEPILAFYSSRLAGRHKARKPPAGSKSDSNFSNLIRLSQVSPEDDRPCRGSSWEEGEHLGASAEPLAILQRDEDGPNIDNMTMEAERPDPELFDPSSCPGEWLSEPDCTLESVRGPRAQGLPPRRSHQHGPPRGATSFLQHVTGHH
Chain of NLK (human) (Q9UBE8 whole entry, looked up): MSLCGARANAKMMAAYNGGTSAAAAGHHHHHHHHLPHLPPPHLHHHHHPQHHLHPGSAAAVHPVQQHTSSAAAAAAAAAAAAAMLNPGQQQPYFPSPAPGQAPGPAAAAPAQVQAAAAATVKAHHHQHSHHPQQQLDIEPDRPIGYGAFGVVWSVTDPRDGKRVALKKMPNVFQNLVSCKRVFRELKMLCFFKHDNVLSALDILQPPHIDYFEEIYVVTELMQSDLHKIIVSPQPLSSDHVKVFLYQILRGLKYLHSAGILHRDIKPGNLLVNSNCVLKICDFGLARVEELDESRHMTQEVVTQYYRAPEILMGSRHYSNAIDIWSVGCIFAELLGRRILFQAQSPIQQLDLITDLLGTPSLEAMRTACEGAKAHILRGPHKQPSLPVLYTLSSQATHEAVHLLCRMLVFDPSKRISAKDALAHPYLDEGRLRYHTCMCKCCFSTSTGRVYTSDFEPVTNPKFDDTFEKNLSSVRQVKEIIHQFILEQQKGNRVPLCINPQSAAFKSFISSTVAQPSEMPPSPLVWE
Chain of CDC42BPB (human) (Q9Y5S2 whole entry, looked up): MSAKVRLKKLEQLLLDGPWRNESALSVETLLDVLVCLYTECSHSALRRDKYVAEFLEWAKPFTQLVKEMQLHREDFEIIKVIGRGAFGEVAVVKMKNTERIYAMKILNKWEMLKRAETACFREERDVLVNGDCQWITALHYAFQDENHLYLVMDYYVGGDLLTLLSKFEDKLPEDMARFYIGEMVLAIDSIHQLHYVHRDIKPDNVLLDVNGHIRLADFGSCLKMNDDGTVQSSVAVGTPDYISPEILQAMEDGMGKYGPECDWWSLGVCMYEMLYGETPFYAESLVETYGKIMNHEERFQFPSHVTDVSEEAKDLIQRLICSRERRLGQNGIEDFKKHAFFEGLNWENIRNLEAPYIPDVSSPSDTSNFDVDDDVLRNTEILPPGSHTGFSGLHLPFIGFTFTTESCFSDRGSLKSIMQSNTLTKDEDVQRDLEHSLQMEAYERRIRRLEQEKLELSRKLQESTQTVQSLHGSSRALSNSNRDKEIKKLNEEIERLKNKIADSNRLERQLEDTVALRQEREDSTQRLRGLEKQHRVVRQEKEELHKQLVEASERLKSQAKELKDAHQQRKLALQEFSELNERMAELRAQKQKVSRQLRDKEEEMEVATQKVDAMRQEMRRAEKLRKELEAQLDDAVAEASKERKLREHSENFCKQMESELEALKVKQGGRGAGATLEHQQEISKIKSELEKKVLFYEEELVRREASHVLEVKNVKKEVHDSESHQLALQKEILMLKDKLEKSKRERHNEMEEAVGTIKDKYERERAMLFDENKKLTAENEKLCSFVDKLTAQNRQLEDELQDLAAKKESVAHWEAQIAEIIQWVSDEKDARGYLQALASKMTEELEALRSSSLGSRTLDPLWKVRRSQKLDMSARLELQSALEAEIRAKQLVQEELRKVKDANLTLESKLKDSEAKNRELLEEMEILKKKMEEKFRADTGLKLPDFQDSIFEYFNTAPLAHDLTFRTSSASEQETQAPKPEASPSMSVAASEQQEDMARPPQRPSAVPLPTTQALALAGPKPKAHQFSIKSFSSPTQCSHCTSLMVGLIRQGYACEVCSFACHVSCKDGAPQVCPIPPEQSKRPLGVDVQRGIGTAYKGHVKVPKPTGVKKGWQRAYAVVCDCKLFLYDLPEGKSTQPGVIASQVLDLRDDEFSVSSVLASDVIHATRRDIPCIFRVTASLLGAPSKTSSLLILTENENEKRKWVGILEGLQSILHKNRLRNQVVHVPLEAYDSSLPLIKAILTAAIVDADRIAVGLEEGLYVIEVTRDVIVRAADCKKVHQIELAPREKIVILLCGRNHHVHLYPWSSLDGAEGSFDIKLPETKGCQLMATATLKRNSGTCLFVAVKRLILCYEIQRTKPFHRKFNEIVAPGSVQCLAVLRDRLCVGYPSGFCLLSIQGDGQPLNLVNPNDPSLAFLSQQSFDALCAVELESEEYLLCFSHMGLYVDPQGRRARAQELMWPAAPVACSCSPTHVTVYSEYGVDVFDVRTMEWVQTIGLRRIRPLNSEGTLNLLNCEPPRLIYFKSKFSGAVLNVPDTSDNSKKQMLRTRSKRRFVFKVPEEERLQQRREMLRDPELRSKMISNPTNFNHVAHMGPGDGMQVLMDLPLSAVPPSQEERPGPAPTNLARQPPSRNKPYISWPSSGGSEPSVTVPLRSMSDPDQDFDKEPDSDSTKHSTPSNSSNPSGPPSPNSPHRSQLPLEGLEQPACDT
Chain of CAMK1D (human) (Q8IU85 whole entry, looked up): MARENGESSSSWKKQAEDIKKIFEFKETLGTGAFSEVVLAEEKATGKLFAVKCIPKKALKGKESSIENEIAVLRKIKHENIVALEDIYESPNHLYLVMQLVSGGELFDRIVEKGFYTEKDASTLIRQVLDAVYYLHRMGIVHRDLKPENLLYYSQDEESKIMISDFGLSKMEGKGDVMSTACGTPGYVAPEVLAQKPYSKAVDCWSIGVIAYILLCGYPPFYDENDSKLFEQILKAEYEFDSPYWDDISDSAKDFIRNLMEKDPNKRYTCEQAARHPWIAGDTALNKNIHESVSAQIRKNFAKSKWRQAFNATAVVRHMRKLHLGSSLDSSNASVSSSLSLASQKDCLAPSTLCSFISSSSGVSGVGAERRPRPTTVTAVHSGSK

`O=C(Nc1cccc(Nc2cc(Nc3cccc(C(F)(F)F)c3)ncn2)c1)C1CC1` was tested, and the residual activity (MET (human)) was 103%, the residual activity (CSNK1A1 (human)) was 102% and the residual activity (DAPK2 (human)) was 99%. The residual activity (NEK11 (human)) was 94.3%, the residual activity (KIT (human)) was 99.9% and the residual activity (ACVRL1 (human)) was 114%. The residual activity (RAF1 (human)) was 98.4%, the residual activity (ROS1 (human)) was 93.5% and the residual activity (MERTK (human)) was 97.3%. For the same molecule, the residual activity (MAP3K2 (human)) was 91.8%, the residual activity (WNK2 (human)) was 109% and the residual activity (NLK (human)) was 95.9%. It also gave a residual activity (FER (human)) of 102%, a residual activity (LRRK2 (human)) of 95.6% and a residual activity (HIPK4 (human)) of 101%. For the same molecule, the residual activity (PDPK1 (human)) was 100%, the residual activity (NTRK2 (human)) was 100% and the residual activity [1] was 102%. For the same molecule, the residual activity (MAP3K10 (human)) was 101%, the residual activity (SLK (human)) was 102% and the residual activity (FES (human)) was 101%. The residual activity (ROCK2 (human)) was 99.2%, the residual activity (PAK2 (human)) was 103% and the residual activity (TGFBR2 (human)) was 105%. For the same molecule, the residual activity (CDC42BPB (human)) was 97.4%, the residual activity (AURKC (human)) was 104% and the residual activity (ZAP70 (human)) was 93%. For the same molecule, the residual activity (ALK (human)) was 112%, the residual activity (PLK1 (human)) was 98.6% and the residual activity (CAMK1D (human)) was 100%. The residual activity (RPS6KB2 (human)) was 103%, the residual activity (RET (human)) was 109% and the residual activity (CSNK1E (human)) was 98.1%. The residual activity (MATK (human)) was 96.1%, the residual activity (TNK2 (human)) was 98.7% and the residual activity (FGFR4 (human)) was 102%. The residual activity (SRPK2 (human)) was 92%, the residual activity (EGFR (human)) was 5.82% and the residual activity (ACVR1B (human)) was 101%. For the same molecule, the residual activity (EPHA1 (human)) was 92.9%, the residual activity (PIM1 (human)) was 104% and the residual activity (MAP3K5 (human)) was 104%.

`CC(C)c1nn(-c2c(Cl)cccc2Cl)c2nc(Cc3ccc(OCCO)cc3)nc(O)c12` was tested, and the residual activity (MET (human)) was 91%, the residual activity (CSNK1A1 (human)) was 99% and the residual activity (DAPK2 (human)) was 88.3%. For the same molecule, the residual activity (NEK11 (human)) was 109%, the residual activity (KIT (human)) was 71% and the residual activity (ACVRL1 (human)) was 103%. For the same molecule, the residual activity (RAF1 (human)) was 95.8%, the residual activity (ROS1 (human)) was 105% and the residual activity (MERTK (human)) was 96.1%. For the same molecule, the residual activity (MAP3K2 (human)) was 94.7%, the residual activity (WNK2 (human)) was 95.7% and the residual activity (NLK (human)) was 97.6%. It also gave a residual activity (FER (human)) of 89.4%, a residual activity (LRRK2 (human)) of 109% and a residual activity (HIPK4 (human)) of 94.7%. The residual activity (PDPK1 (human)) was 94.9%, the residual activity (NTRK2 (human)) was 101% and the residual activity [1] was 111%. For the same molecule, the residual activity (MAP3K10 (human)) was 90.3%, the residual activity (SLK (human)) was 86.9% and the residual activity (FES (human)) was 97.1%. The residual activity (ROCK2 (human)) was 92.5%, the residual activity (PAK2 (human)) was 95.6% and the residual activity (TGFBR2 (human)) was 74.3%. The residual activity (CDC42BPB (human)) was 105%, the residual activity (AURKC (human)) was 87.6% and the residual activity (ZAP70 (human)) was 103%. The residual activity (ALK (human)) was 103%, the residual activity (PLK1 (human)) was 93.9% and the residual activity (CAMK1D (human)) was 102%. It also gave a residual activity (RPS6KB2 (human)) of 106%, a residual activity (RET (human)) of 97.5% and a residual activity (CSNK1E (human)) of 83.6%. The residual activity (MATK (human)) was 91.1%, the residual activity (TNK2 (human)) was 98.9% and the residual activity (FGFR4 (human)) was 91.5%. The residual activity (SRPK2 (human)) was 89.2%, the residual activity (EGFR (human)) was 95.2% and the residual activity (ACVR1B (human)) was 109%. It also gave a residual activity (EPHA1 (human)) of 95%, a residual activity (PIM1 (human)) of 99% and a residual activity (MAP3K5 (human)) of 119%.

With `Cc1nc2cc3nc(-c4cccs4)cnc3cc2n1C` the residual activity (MET (human)) was 111%, the residual activity (CSNK1A1 (human)) was 96.7% and the residual activity (DAPK2 (human)) was 94.1%. For the same molecule, the residual activity (NEK11 (human)) was 93.1%, the residual activity (KIT (human)) was 40.4% and the residual activity (ACVRL1 (human)) was 109%. It also gave a residual activity (RAF1 (human)) of 104%, a residual activity (ROS1 (human)) of 97.9% and a residual activity (MERTK (human)) of 90.4%. It also gave a residual activity (MAP3K2 (human)) of 90.2%, a residual activity (WNK2 (human)) of 123% and a residual activity (NLK (human)) of 105%. It also gave a residual activity (FER (human)) of 104%, a residual activity (LRRK2 (human)) of 106% and a residual activity (HIPK4 (human)) of 103%. The residual activity (PDPK1 (human)) was 106%, the residual activity (NTRK2 (human)) was 64.7% and the residual activity [1] was 102%. It also gave a residual activity (MAP3K10 (human)) of 101%, a residual activity (SLK (human)) of 94.5% and a residual activity (FES (human)) of 106%. It also gave a residual activity (ROCK2 (human)) of 107%, a residual activity (PAK2 (human)) of 102% and a residual activity (TGFBR2 (human)) of 89.2%. The residual activity (CDC42BPB (human)) was 100%, the residual activity (AURKC (human)) was 93.3% and the residual activity (ZAP70 (human)) was 93.3%. The residual activity (ALK (human)) was 99.8%, the residual activity (PLK1 (human)) was 109% and the residual activity (CAMK1D (human)) was 107%. The residual activity (RPS6KB2 (human)) was 98%, the residual activity (RET (human)) was 68.9% and the residual activity (CSNK1E (human)) was 94.5%. The residual activity (MATK (human)) was 100%, the residual activity (TNK2 (human)) was 100% and the residual activity (FGFR4 (human)) was 96.3%. For the same molecule, the residual activity (SRPK2 (human)) was 104%, the residual activity (EGFR (human)) was 104% and the residual activity (ACVR1B (human)) was 104%. It also gave a residual activity (EPHA1 (human)) of 87.1%, a residual activity (PIM1 (human)) of 103% and a residual activity (MAP3K5 (human)) of 98.9%.

For `O=C(CCCc1ccc(-c2ccccc2F)cc1)Nc1ccc(O)cc1`, the residual activity (MET (human)) was 114%, the residual activity (CSNK1A1 (human)) was 101% and the residual activity (DAPK2 (human)) was 106%. The residual activity (NEK11 (human)) was 100%, the residual activity (KIT (human)) was 96.3% and the residual activity (ACVRL1 (human)) was 101%. For the same molecule, the residual activity (RAF1 (human)) was 102%, the residual activity (ROS1 (human)) was 98.4% and the residual activity (MERTK (human)) was 98.8%. It also gave a residual activity (MAP3K2 (human)) of 89.1%, a residual activity (WNK2 (human)) of 106% and a residual activity (NLK (human)) of 101%. The residual activity (FER (human)) was 103%, the residual activity (LRRK2 (human)) was 98% and the residual activity (HIPK4 (human)) was 105%. It also gave a residual activity (PDPK1 (human)) of 112%, a residual activity (NTRK2 (human)) of 95.8% and a residual activity [1] of 96.5%. The residual activity (MAP3K10 (human)) was 88.8%, the residual activity (SLK (human)) was 102% and the residual activity (FES (human)) was 100%. For the same molecule, the residual activity (ROCK2 (human)) was 90.5%, the residual activity (PAK2 (human)) was 101% and the residual activity (TGFBR2 (human)) was 101%. It also gave a residual activity (CDC42BPB (human)) of 109%, a residual activity (AURKC (human)) of 95.4% and a residual activity (ZAP70 (human)) of 99.7%. For the same molecule, the residual activity (ALK (human)) was 97%, the residual activity (PLK1 (human)) was 95.5% and the residual activity (CAMK1D (human)) was 122%. For the same molecule, the residual activity (RPS6KB2 (human)) was 104%, the residual activity (RET (human)) was 111% and the residual activity (CSNK1E (human)) was 99.4%. For the same molecule, the residual activity (MATK (human)) was 92.2%, the residual activity (TNK2 (human)) was 99.2% and the residual activity (FGFR4 (human)) was 106%. It also gave a residual activity (SRPK2 (human)) of 94.3%, a residual activity (EGFR (human)) of 87.9% and a residual activity (ACVR1B (human)) of 95.9%. It also gave a residual activity (EPHA1 (human)) of 117%, a residual activity (PIM1 (human)) of 97.9% and a residual activity (MAP3K5 (human)) of 94.3%.
